Legend:
PBMC (Homo sapiens) = test: Cytotoxic concentration of compound determined by the […] exclusion staining method in PBMC by test II
MT4 [1] = test: Cytotoxic concentration of compound required to reduce the viability of mock infected MT-4 cells on the MTT assay by testI; format: functional; settings: Homo sapiens
[2] = test system: Human immunodeficiency virus 1; test: Effective concentration for 50% protection of HIV-induced cytopathogenicity in MT-4 cells on the MTT assay (ZIDOVUDINE control); format: functional, organism-based; settings: Human immunodeficiency virus 1, MT4
[3] = Selectivity index determined for CC50 (test I) to EC50 x 10e3; format: functional
MT4 [4] = test: Cytotoxic concentration of compound required to reduce the viability of mock infected MT-4 cells on the MTT assay in test I; format: functional; settings: Homo sapiens
[5] = Selectivity index determined for CC50 (test II) / EC50 x 10e3; format: functional
[6] = Selectivity index determined for CC50 (test I) / EC50 x 10e3; format: functional
[7] = Selectivity index determined for CC50 (test II) to EC50 x 10e3; format: functional

Structure (SMILES): NCCCC[C@@H]1NC(=O)[C@H](CCCN=C(N)N)NC(=O)[C@H](Cc2ccc(O)cc2)NC(=O)[C@@H](NC(=O)[C@@H](NC(=O)[C@H](CCCN=C(N)N)NC(=O)[C@@H](N)CCCN=C(N)N)c2ccc3ccccc3c2)CSSC[C@@H](C(=O)N[C@@H](CCCN=C(N)N)C(=O)O)NC(=O)[C@H](CCCNC(N)=O)NC(=O)[C@H](CCCN=C(N)N)NC(=O)[C@H](Cc2ccc(O)cc2)NC(=O)[C@@H]2CCCN2C(=O)[C@@H](CCCCN)NC1=O
- CC50 (PBMC (Homo sapiens)): 59 µM
- CC50 (MT4 [1]): > 1 µM

Structure (SMILES): Cc1cn([C@H]2C[C@H](N=[N+]=[N-])[C@@H](CO)O2)c(=O)[nH]c1=O [ZIDOVUDINE]
- EC50 [2]: 0.0079 µM
- SI [3]: 1.5
- CC50 (MT4 [4]): 12 µM

Structure (SMILES): NCCCC[C@@H]1NC(=O)[C@@H](CCCCN)NC(=O)[C@H](CCCN=C(N)N)NC(=O)[C@@H](Cc2ccc(O)cc2)NC(=O)[C@H](NC(=O)[C@@H](NC(=O)[C@H](CCCN=C(N)N)NC(=O)[C@@H](N)CCCN=C(N)N)c2ccc3ccccc3c2)CSSC[C@H](C(=O)N[C@@H](CCCN=C(N)N)C(=O)O)NC(=O)[C@H](CCCNC(N)=O)NC(=O)[C@H](CCCN=C(N)N)NC(=O)[C@H](Cc2ccc(O)cc2)NC(=O)[C@H]2CCCN2C1=O
- SI [5]: 18
- SI [6]: > 0.3

Structure (SMILES): NCCCC[C@@H]1NC(=O)[C@@H](CCCCN)NC(=O)[C@H](CCCN=C(N)N)NC(=O)[C@@H](Cc2ccc(O)cc2)NC(=O)[C@H](NC(=O)[C@@H](NC(=O)[C@H](CCCN=C(N)N)NC(=O)[C@@H](N)CCCNC(N)=O)c2ccc3ccccc3c2)CSSC[C@H](C(=O)N[C@@H](CCCN=C(N)N)C(N)=O)NC(=O)[C@H](CCCNC(N)=O)NC(=O)[C@H](CCCNC(N)=O)NC(=O)[C@H](Cc2ccc(O)cc2)NC(=O)[C@H]2CCCN2C1=O
- SI [7]: 12
- SI [3]: > 2.5
